Source: patent publication US20180148418A1, “AMIDO-SUBSTITUTED CYCLOHEXANE DERIVATIVES” (Bayer Pharma Aktiengesellschaft, priority 2015, published 2018)

How the values were obtained:
[1] = test system: HEK293 cells cotransfected with the FOP control vector; test: HEK293 FOP assay (control reporter with non-functional TCF elements); assay type: cell-based; details: Homo sapiens, 16 hours
Outline: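 Compound series from 50 μM down to 15 nM, prediluted in DMSO then 50-fold into CAFTY buffer (pH 7.4, 2 mM Ca2+, 0.01% BSA), tested alongside TOP cells on a Geneticin-selected HEK293 FOP line whose TCF elements are replaced by a random sequence; recombinant human Wnt-3a applied at 2500-5 ng/ml.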

[2] = target: T1, TNKS1 (Homo sapiens, UniProt O95271); test: TNKS1 Assay B (auto-parsylation, [3H]-NAD+ SPA); assay type: biochemical; details: 6 nM TNKS1, auto-parsylation, over night at room temperature
T1 construct: purchased BPS Bioscience, San Diego, USA 80579 (TNKS1 Histone Ribosylation Assay Kit)
T1 sequence (O95271 1-1327): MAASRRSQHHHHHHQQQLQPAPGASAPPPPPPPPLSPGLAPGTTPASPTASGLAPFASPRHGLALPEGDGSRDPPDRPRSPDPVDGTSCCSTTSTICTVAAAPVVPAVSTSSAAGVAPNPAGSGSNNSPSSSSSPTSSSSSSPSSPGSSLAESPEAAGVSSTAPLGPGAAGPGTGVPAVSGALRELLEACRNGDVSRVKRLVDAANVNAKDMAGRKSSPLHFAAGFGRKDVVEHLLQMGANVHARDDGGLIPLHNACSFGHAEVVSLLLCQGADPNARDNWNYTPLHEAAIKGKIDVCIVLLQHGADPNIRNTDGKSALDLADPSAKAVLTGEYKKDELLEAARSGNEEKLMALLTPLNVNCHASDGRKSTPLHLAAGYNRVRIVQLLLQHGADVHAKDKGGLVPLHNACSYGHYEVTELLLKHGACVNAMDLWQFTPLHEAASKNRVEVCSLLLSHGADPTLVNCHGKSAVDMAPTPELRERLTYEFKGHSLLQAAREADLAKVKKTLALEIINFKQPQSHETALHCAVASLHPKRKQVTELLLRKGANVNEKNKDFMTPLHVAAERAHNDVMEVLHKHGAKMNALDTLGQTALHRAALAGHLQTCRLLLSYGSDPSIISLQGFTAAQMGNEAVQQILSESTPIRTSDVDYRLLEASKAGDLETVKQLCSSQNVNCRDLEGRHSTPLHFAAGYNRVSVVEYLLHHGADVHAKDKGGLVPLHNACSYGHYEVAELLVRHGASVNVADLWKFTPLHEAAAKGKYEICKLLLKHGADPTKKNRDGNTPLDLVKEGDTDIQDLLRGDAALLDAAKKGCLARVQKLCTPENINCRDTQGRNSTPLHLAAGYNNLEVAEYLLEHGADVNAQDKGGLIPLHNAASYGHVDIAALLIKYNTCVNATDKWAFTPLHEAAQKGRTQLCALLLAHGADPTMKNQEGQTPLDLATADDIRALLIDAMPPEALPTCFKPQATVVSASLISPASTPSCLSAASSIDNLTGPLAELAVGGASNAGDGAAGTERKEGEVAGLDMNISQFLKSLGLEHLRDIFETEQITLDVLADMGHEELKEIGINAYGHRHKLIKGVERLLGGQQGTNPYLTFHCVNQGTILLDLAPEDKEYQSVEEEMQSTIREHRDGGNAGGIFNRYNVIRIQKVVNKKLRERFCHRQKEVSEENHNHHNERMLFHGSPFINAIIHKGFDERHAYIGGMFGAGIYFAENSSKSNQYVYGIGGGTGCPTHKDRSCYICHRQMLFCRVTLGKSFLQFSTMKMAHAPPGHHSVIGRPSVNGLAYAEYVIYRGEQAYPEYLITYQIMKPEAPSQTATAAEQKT

O=C(NC1CCC2(CC1)CCN(c1cc(F)c(F)cc1Cl)C2=O)c1cnn2cccnc12 (single isomer, unassigned; isomer 1) [Example 168, N-[2-(2-chloro-4,5-difluorophenyl)-1-oxo-2-azaspiro[4.5]dec-8-yl]pyrazolo[1,5-a]pyrimidine-3-carboxamide (isomer 1)]
IC50 [1]: ≥ 50000 nM | IC50 [2]: 7.3 nM

CNC(=O)c1nc[nH]c1C(=O)N[C@H]1CC[C@H](C(=O)Nc2cccnc2Cl)CC1 [Example 10, N^5-{trans-4-[(2-chloropyridin-3-yl)carbamoyl]cyclohexyl}-N^4-methyl-1H-imidazole-4,5-dicarboxamide]
IC50 [1]: ≥ 50000 nM | IC50 [2]: 250 nM

CNC(=O)c1nc[nH]c1C(=O)N[C@H]1CC[C@H](C(=O)Nc2ccncc2Cl)CC1 [Example 11, N^5-{trans-4-[(3-chloropyridin-4-yl)carbamoyl]cyclohexyl}-N^4-methyl-1H-imidazole-4,5-dicarboxamide]
IC50 [1]: ≥ 50000 nM | IC50 [2]: 260 nM

CC1CCN(CCNC(=O)c2nc[nH]c2C(=O)N[C@H]2CC[C@H](C(=O)Nc3ccc(F)cc3Cl)CC2)CC1 [Example 12, N^5-{trans-4-[(2-chloro-4-fluorophenyl)carbamoyl]cyclohexyl}-N^4-[2-(4-methylpiperidin-1-yl)ethyl]-1H-imidazole-4,5-dicarboxamide]
IC50 [1]: ≥ 50000 nM | IC50 [2]: 3.7 nM

O=C(NCCN1CCOCC1)c1nc[nH]c1C(=O)N[C@H]1CC[C@H](C(=O)Nc2ccc(F)cc2Cl)CC1 [Example 13, N^5-{trans-4-[(2-chloro-4-fluorophenyl)carbamoyl]cyclohexyl}-N^4-[2-(morpholin-4-yl)ethyl]-1H-imidazole-4,5-dicarboxamide]
IC50 [1]: ≥ 50000 nM | IC50 [2]: 10 nM

O=C(N[C@H]1CC[C@H](C(=O)Nc2ccc(F)cc2Cl)CC1)c1[nH]cnc1C(=O)N1CC2(COC2)C1 [Example 14, N-{trans-4-[(2-chloro-4-fluorophenyl)carbamoyl]cyclohexyl}-4-(2-oxa-6-azaspiro[3.3]hept-6-ylcarbonyl)-1H-imidazole-5-carboxamide]
IC50 [1]: ≥ 50000 nM | IC50 [2]: 63 nM

CCNC(=O)c1nc[nH]c1C(=O)N[C@H]1CC[C@H](C(=O)Nc2ccc(F)cc2Cl)CC1 [Example 15, N^5-{trans-4-[(2-chloro-4-fluorophenyl)carbamoyl]cyclohexyl}-N^4-ethyl-1H-imidazole-4,5-dicarboxamide]
IC50 [1]: ≥ 50000 nM | IC50 [2]: 52 nM

CN(C)C(=O)c1nc[nH]c1C(=O)N[C@H]1CC[C@H](C(=O)Nc2ccc(F)cc2Cl)CC1 [Example 16, N^5-{trans-4-[(2-chloro-4-fluorophenyl)carbamoyl]cyclohexyl}-N^4,N^4-dimethyl-1H-imidazole-4,5-dicarboxamide]
IC50 [1]: ≥ 50000 nM | IC50 [2]: 1100 nM

O=C(NC1CC1)c1nc[nH]c1C(=O)N[C@H]1CC[C@H](C(=O)Nc2ccc(F)cc2Cl)CC1 [Example 17, N^5-{trans-4-[(2-chloro-4-fluorophenyl)carbamoyl]cyclohexyl}-N^4-cyclopropyl-1H-imidazole-4,5-dicarboxamide]
IC50 [1]: ≥ 50000 nM | IC50 [2]: 84 nM

O=C(NCCO)c1nc[nH]c1C(=O)N[C@H]1CC[C@H](C(=O)Nc2ccc(F)cc2Cl)CC1 [Example 18, N^5-{trans-4-[(2-chloro-4-fluorophenyl)carbamoyl]cyclohexyl}-N^4-(2-hydroxyethyl)-1H-imidazole-4,5-dicarboxamide]
IC50 [1]: ≥ 50000 nM | IC50 [2]: 94 nM

COCCNC(=O)c1nc[nH]c1C(=O)N[C@H]1CC[C@H](C(=O)Nc2ccc(F)cc2Cl)CC1 [Example 19, N^5-{trans-4-[(2-chloro-4-fluorophenyl)carbamoyl]cyclohexyl}-N^4-(2-methoxyethyl)-1H-imidazole-4,5-dicarboxamide]
IC50 [1]: ≥ 50000 nM | IC50 [2]: 120 nM

CC(C)NC(=O)c1nc[nH]c1C(=O)N[C@H]1CC[C@H](C(=O)Nc2ccc(F)cc2Cl)CC1 [Example 20, N^5-{trans-4-[(2-chloro-4-fluorophenyl)carbamoyl]cyclohexyl}-N^4-isopropyl-1H-imidazole-4,5-dicarboxamide]
IC50 [1]: ≥ 50000 nM | IC50 [2]: 90 nM

O=C(NCC(F)(F)F)c1nc[nH]c1C(=O)N[C@H]1CC[C@H](C(=O)Nc2ccc(F)cc2Cl)CC1 [Example 21, N^5-{trans-4-[(2-chloro-4-fluorophenyl)carbamoyl]cyclohexyl}-N^4-(2,2,2-trifluoroethyl)-1H-imidazole-4,5-dicarboxamide]
IC50 [1]: ≥ 50000 nM | IC50 [2]: 37 nM

O=C(N[C@H]1CC[C@@]2(CCN(c3ccc(F)cc3Cl)C2=O)CC1)c1[nH]cnc1C(=O)N1CCN(CC(F)(F)F)CC1 [Example 167, N-[(trans)-2-(2-chloro-4-fluorophenyl)-1-oxo-2-azaspiro[4.5]dec-8-yl]-4-{[4-(2,2,2-trifluoroethyl)piperazin-1-yl]carbonyl}-1H-imidazole-5-carboxamide]
IC50 [1]: ≥ 50000 nM | IC50 [2]: 660 nM

Cc1cc(C)n2ncc(C(=O)N[C@H]3CC[C@H](C(=O)Nc4cnccc4Cl)CC3)c2n1 [Example 169, N-{trans-4-[(4-chloropyridin-3-yl)carbamoyl]cyclohexyl}-5,7-dimethylpyrazolo[1,5-a]pyrimidine-3-carboxamide]
IC50 [1]: ≥ 50000 nM | IC50 [2]: 35 nM

CNC(=O)c1nc[nH]c1C(=O)N[C@H]1CC[C@H](C(=O)Nc2cc(C(C)(C)O)ccc2Cl)CC1 [Example 170, N^5-(trans-4-{[2-chloro-5-(2-hydroxypropan-2-yl)phenyl]carbamoyl}cyclohexyl)-N^4-methyl-1H-imidazole-4,5-dicarboxamide]
IC50 [1]: ≥ 50000 nM | IC50 [2]: 2400 nM

CNC(=O)c1nc[nH]c1C(=O)N[C@H]1CC[C@H](C(=O)N(C)c2ccccc2)CC1 [Example 171, N^4-methyl-N^5-{trans-4-[methyl(phenyl)carbamoyl]cyclohexyl}-1H-imidazole-4,5-dicarboxamide]
IC50 [1]: ≥ 50000 nM | IC50 [2]: 400 nM

CNC(=O)c1nc[nH]c1C(=O)N[C@H]1CC[C@H](C(=O)N(C)c2ccc(F)cc2)CC1 [Example 172, N^5-{trans-4-[(4-fluorophenyl)(methyl)carbamoyl]cyclohexyl}-N^4-methyl-1H-imidazole-4,5-dicarboxamide]
IC50 [1]: ≥ 50000 nM | IC50 [2]: 980 nM

CNC(=O)c1nc[nH]c1C(=O)N[C@H]1CC[C@H](C(=O)N(C)c2ccc(F)cc2Cl)CC1 [Example 173, N^5-{trans-4-[(2-chloro-4-fluorophenyl)(methyl)carbamoyl]cyclohexyl}-N^4-methyl-1H-imidazole-4,5-dicarboxamide]
IC50 [1]: ≥ 50000 nM | IC50 [2]: 200 nM

Cc1cc(N(C)C(=O)[C@H]2CC[C@H](NC(=O)c3cnn4cccnc34)CC2)c(Cl)cc1F [Example 176, N-{trans-4-[(2-chloro-4-fluoro-5-methylphenyl)(methyl)carbamoyl]cyclohexyl}pyrazolo[1,5-a]pyrimidine-3-carboxamide]
IC50 [1]: 5300 nM | IC50 [2]: 160 nM

O=C(N[C@H]1CC[C@H](C(=O)N(CC2CC2)c2ccc(F)cc2Cl)CC1)c1cnn2cccnc12 [Example 177, N-{trans-4-[(2-chloro-4-fluorophenyl)(cyclopropylmethyl)carbamoyl]cyclohexyl}pyrazolo[1,5-a]pyrimidine-3-carboxamide]
IC50 [1]: 40000 nM | IC50 [2]: 13 nM

Cc1ccccc1N(C)C(=O)[C@H]1CC[C@H](NC(=O)c2cnn3cccnc23)CC1 [Example 178, N-{trans-4-[methyl(2-methylphenyl)carbamoyl]cyclohexyl}pyrazolo[1,5-a]pyrimidine-3-carboxamide]
IC50 [1]: ≥ 50000 nM | IC50 [2]: 330 nM

C[C@]1(C(=O)Nc2ccc(F)cc2Cl)CC[C@H](NC(=O)c2cnn3cccnc23)CC1 [Example 179, N-{trans-4-[(2-chloro-4-fluorophenyl)carbamoyl]-4-methylcyclohexyl}pyrazolo[1,5-a]pyrimidine-3-carboxamide]
IC50 [1]: ≥ 50000 nM | IC50 [2]: 970 nM
